Key:
Phosphodiesterase 1 = Phosphodiesterase 1 (Bos taurus, UniProt Q01061+P14100); experiment: Inhibition of phosphodiesterase 1 from bovine heart; type: protein assay
Phosphodiesterase 6 = experiment: Inhibition of phosphodiesterase 6 from bovine retina; type: protein assay, Bos taurus
[1] = Relative inhibition of PDE1 and PDE5
[2] = molecular target: Phosphodiesterase 3 (Oryctolagus cuniculus); experiment: Inhibition of phosphodiesterase 3 from rabbit platelets
[3] = tested on: Phosphodiesterase 3 and 5 (Oryctolagus cuniculus); experiment: Relative inhibition of PDE3 and PDE5
[4] = Relative inhibition of PDE6 and PDE5

CCCOc1ccc(S(=O)(=O)N2CCC(CP(=O)(O)OCC)CC2)cc1-c1nc2c(CCC)nn(C)c2c(=O)[nH]1
IC50 (Phosphodiesterase 1): 156 nM
IC50 (Phosphodiesterase 6): 2.58 nM
IC50 ratio [1]: 918
IC50 [2]: 2600 nM
IC50 ratio [3]: > 15000
IC50 ratio [4]: 15

From ChEMBL document CHEMBL1147542 (Bioorg Med Chem Lett, 2004)
